Source: patent US20120165285A1, “COMBINED PREPARATION FOR USE AS A MEDICAMENT” (priority 2009, published 2012)

Tests used:
[1] = test system: patients suffering from diabetic neuropathy; assay: Phase 2A clinical trial, diabetic neuropathic pain; assay type: in vivo, human
Protocol: In a Phase 2A clinical trial, patients suffering from diabetic neuropathy were administered 2-methoxyadenosine (2-MeOAd)) (7 mg 3 times per day) or a placebo over a four week period, and asked to rate their pain intensity (diabetic neuropathic pain) once per week based on an 11 point Likert Scale (0-10). The patients included some who were already being administered with a calcium channel blocker at a conventional therapeutic dose. The calcium channel blockers administered included Amlodipine (5-10 mg once per day), Verapamil, or Felodipine.
Patients in the clinical trial also completed the Short form McGill pain questionnaire (SF-MPQ) (Melzack, Pain, 1987, August; 30(2):191-7). The main component of the SF-MPQ consists of 15 descriptors (11 sensory; 4 affective) which are rated on an intensity scale as […], 1=mild, 2=moderate or 3=severe. Three pain scores are derived from the sum of the intensity rank values of the words chosen for sensory, affective and total descriptors. The SF-MPQ also includes the Present Pain Intensity (PPI) index of the standard MPQ and a visual analogue scale (VAS).

[2] = test system: rat adjuvant model of arthritis; assay: Rat adjuvant model of arthritis, analgesic relief; assay type: in vivo
adenosine A2A receptor = adenosine A2A receptor (Homo sapiens, UniProt P29274); assay: EC50 at the adenosine A2A receptor; assay type: biochemical
adenosine A2A receptor, sequence (P29274 whole entry): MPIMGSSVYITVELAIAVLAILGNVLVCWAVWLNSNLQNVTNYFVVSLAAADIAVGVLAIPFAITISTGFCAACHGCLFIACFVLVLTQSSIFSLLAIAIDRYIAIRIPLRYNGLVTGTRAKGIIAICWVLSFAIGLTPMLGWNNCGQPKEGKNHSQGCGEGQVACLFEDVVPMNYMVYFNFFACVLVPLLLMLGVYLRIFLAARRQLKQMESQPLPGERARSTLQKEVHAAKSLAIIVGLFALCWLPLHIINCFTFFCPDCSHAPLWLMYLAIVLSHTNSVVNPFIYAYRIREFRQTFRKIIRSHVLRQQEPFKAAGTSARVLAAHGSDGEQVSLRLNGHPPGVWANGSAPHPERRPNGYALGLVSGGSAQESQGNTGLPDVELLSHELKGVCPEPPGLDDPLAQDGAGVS
Description: For the avoidance of doubt, the EC50 value of a compound is defined herein as the concentration of the compound that provokes a receptor response halfway between the baseline receptor response and the maximum receptor response (as determined, for example, using a dose-response curve).
The EC50 value should be determined under standard conditions (balanced salt solutions buffered to pH 7.4). For EC50 determinations using isolated membranes, cells and tissues this would be in buffered salt solution at pH 7.4 (e.g. cell culture medium), for example as in Daly et al., Pharmacol. (1993) 46, 91-100), or preferably as in Tilburg et al (J. Med. Chem. (2002) 45, 91-100). The EC50 could also be determined in vivo by measuring A2A adenosine receptor mediated responses in a normal healthy animal, or even in a tissue perfused under normal conditions (i.e. oxygenated blood, or oxygenated isotonic media, also buffered at pH 7.4) in a normal healthy animal.

A2A adenosine receptor = A2A adenosine receptor (Homo sapiens, UniProt P29274); details: pH below 7.4; cited from earlier work
A2A adenosine receptor, sequence (P29274 whole entry): as above

[3] = patients also administered a calcium channel blocker
[4] = with calcium channel blocker, P<0.02

For `COc1nc(N)c2ncn([C@@H]3O[C@H](CO)[C@@H](O)[C@H]3O)c2n1` [2-methoxyadenosine], which “effect on 24-hour pain intensity compared with placebo” value [1, 3] is on record?
The value was “significant effect”.

And the “responder rate, patients who experienced >30% pain relief” value [1, 3]?
The value was 74%.

And the “responder rate, patients who experienced >50% pain relief” value [1, 3]?
The value was 43%.

What about the “median change from baseline in 24-hour pain intensity” value ([1]; patients also administered a calcium channel blocker, after 4 weeks, 7 mg 3 times per day, 11 point Likert Scale, P<0.01) of the same compound?
The value was “more than −2.5”.

What about the “effect on 24-hour pain intensity compared with placebo” value ([1]; patients not also administered a calcium channel blocker) of the same compound?
The value was “no effect”.

What about the “median change from baseline in 24-hour pain intensity, difference below placebo” value ([1]; whole patient population (with and without calcium channel blocker), Week 4, 7 mg 3 times per day, 11 point Likert Scale) of the same compound?
Its value is 0.7.

What about the “patient global impression of change (PGIC), 7 point scale” value ([1]; with calcium channel blocker) of the same compound?
Its value is “favourable effect”.

What about the “Clinical global impression of change (CGIC), 7 point scale” value [1, 4] of the same compound?
The value was “reduction”.

What about the “pain rated by the VAS (SF-MPQ)” value [1, 4] of the same compound?
The value was “reduction”.

What about the “SF-MPQ total pain intensity score” value ([1]; with calcium channel blocker, P<0.03) of the same compound?
Its value is “reduction”.

And the “present pain intensity (PPI, SF-MPQ)” value ([1]; with calcium channel blocker, P<0.04)?
Its value is “reduction”.

What about the “minimum plasma concentration giving maximal analgesic relief” value [2] of the same compound?
The value was 0.06 µM.

And the EC50 (adenosine A2A receptor)?
The EC50 was roughly 1000 nM.

What about the “affinity for adenosine receptors at pH below pH 7.4” value (A2A adenosine receptor) of the same compound?
Its value is “increased affinity”.
